Data as given in US20250144067A1, “PERSONALIZED STARVATION THERAPY FOR CANCER” (Faeth Therapeutics, Inc., priority 2021, published 2025).
Where a name gives a salt, the structure may show the parent alone. Peptide text beside a SMILES is read from it.

What was measured:
[1] = tested on: NCI-H292 lung cancer cells; assay: FDA drug screening, complete media vs cholesterol-free media with simvastatin (TABLE 2); assay type: cell-based, human; conditions: for Cholesterol-free media + simvastatin (0.04 μM) / Complete Media: NCI-H292 cells
[2] = tested on: NCI-H292 lung cancer cells; assay: FDA drug screening, complete media vs cholesterol-free media without statin (TABLE 1); assay type: cell-based, human
[3] = FDA drug library screen, cholesterol-free media with simvastatin 0.04 μM
[4] = FDA drug library screen, complete media
[5] = complete media vs cholesterol-free media + simvastatin (0.04 μM), […]
[6] = Complete minus Cholesterol-free, […]
[7] = NCI-H292 cells, cholesterol-free media without statin
[8] = cholesterol-free media with simvastatin 0.04 μM, FDA drug library screen (TABLE 2)
[9] = complete media, FDA drug library screen (TABLE 2)
[10] = complete media minus cholesterol-free media + simvastatin (0.04 μM), >0 enhanced anti-cancer activity, about 0 neutral, <0 antagonist
[11] = complete vs cholesterol-free media, greater than 0 enhanced anti-cancer activity, about 0 neutral, below 0 antagonists
[12] = complete media minus cholesterol-free media + simvastatin, >0 enhanced anti-cancer activity, about 0 neutral, <0 antagonist
[13] = Complete minus Cholesterol-free, >0 enhanced anti-cancer activity, about 0 neutral, <0 antagonist
[14] = NCI-H292 cells, cholesterol-free media without statin, FDA drug library screen
[15] = NCI-H292 cells, complete media, FDA drug library screen
[16] = FDA library drug in cholesterol-free media with simvastatin 0.04 μM
[17] = FDA library drug in complete media
[18] = complete media vs cholesterol-free media + simvastatin (0.04 μM), >0 enhanced anti-cancer activity, about 0 neutral, <0 antagonist
[19] = complete vs cholesterol-free media, >0 enhanced anti-cancer activity, about 0 neutral, <0 antagonist
[20] = cholesterol-free media with simvastatin 0.04 μM, cell growth value in FDA drug screen
[21] = complete media, cell growth value in FDA drug screen
[22] = drug in cholesterol-free media with simvastatin 0.04 μM
[23] = Complete minus Cholesterol-free, greater than 0 enhanced anti-cancer activity, about 0 neutral, below 0 antagonist
[24] = NCI-H292 cells, FDA drug library screen, cholesterol-free media without statin
[25] = NCI-H292 cells, FDA drug library screen, complete media
[26] = NCI-H292 cells in cholesterol-free media without statin
[27] = NCI-H292 cells in complete media

Row | SMILES | Cholesterol-free media + simvastatin (0.04 μM) [1, 3] | Complete Media [1, 4] | Cholesterol-free [2, 7] | Complete ([2]; NCI-H292 cells, complete media) | Difference [1, 12] | Cholesterol-free [2, 14] | Complete [2, 15] | Difference [1, 18] | other results
1 | Cc1cc(=O)n(-c2ccccc2)n1C [Antipyrine] | 0.9785 | 0.8535 | 1.066 | 0.8256 |  |  |  |  | Difference [1, 5]: −0.13; Difference [2, 6]: −0.24
2 | CNC(=O)c1ccc(N2C(=S)N(c3cnc(C#N)c(C(F)(F)F)c3)C(=O)C23CCC3)cc1F [Apalutamide] |  |  | 1.195 | 0.8274 |  |  |  |  | Cholesterol-free media + simvastatin (0.04 μM) [1, 8]: 1.113; Complete Media [1, 9]: 1.082; Difference [1, 10]: −0.03; Difference [2, 11]: −0.37
3 | COc1ccc(-n2nc(C(N)=O)c3c2C(=O)N(c2ccc(N4CCCCC4=O)cc2)CC3)cc1 [Apixaban] | 0.9978 | 1.135 |  |  | 0.14 | 0.9998 | 0.9349 |  | Difference [2, 13]: −0.06
4 | Nc1cc(Cl)c(N=C2NCCN2)c(Cl)c1 [Apraclonidine (hydrochloride)] |  |  |  | 1.213 |  |  |  | −0.33 | Cholesterol-free media + simvastatin (0.04 μM) [1, 16]: 1.345; Complete Media [1, 17]: 1.018; Difference [2, 11]: −0.41
5 | CCOc1cc([C@@H](CS(C)(=O)=O)N2C(=O)c3cccc(NC(C)=O)c3C2=O)ccc1OC [Apremilast] | 1.396 | 1.812 |  |  | 0.42 | 1.127 | 1.856 |  | Difference [2, 19]: 0.73
6 | C[C@@H](O[C@H]1OCCN(Cc2n[nH]c(=O)[nH]2)[C@H]1c1ccc(F)cc1)c1cc(C(F)(F)F)cc(C(F)(F)F)c1 [Aprepitant] |  |  | 0.998 | 0.7992 | 0.11 |  |  |  | Cholesterol-free media + simvastatin (0.04 μM) [1, 20]: 1.036; Complete Media [1, 21]: 1.144; Difference [2, 13]: −0.20
7 | C=CCC(C(=O)NC(N)=O)C(C)C (centres unmarked) [Apronal] |  |  |  |  |  | 1.287 | 1.458 |  | Cholesterol-free media + simvastatin (0.04 μM) [1, 22]: 1.688; Complete Media ([1]; drug in complete media): 1.479; Difference [1, 5]: −0.21; Difference ([2]; complete vs cholesterol-free media, […]): 0.17
8 | CC1CNc2c(cccc2S(=O)(=O)N[C@@H](CCCNC(=N)N)C(=O)N2CC[C@@H](C)C[C@@H]2C(=O)O)C1 (some centres unmarked) [Argatroban (monohydrate)] |  |  |  |  |  |  |  | −0.24 | Cholesterol-free media + simvastatin (0.04 μM) [1, 22]: 1.179; Complete Media ([1]; drug in complete media): 0.9367; Difference [2, 23]: −0.08; Cholesterol-free [2, 24]: 1.232
9 | CCCCCCCCCCCC(=O)OCN1C(=O)CCc2ccc(OCCCCN3CCN(c4cccc(Cl)c4Cl)CC3)cc21 [Aripiprazole Lauroxil] |  |  |  |  |  | 0.9297 | 0.8705 |  | Cholesterol-free media + simvastatin (0.04 μM) [1, 8]: 0.9724; Complete Media [1, 9]: 0.9697; Difference ([1]; complete media minus cholesterol-free media + simvastatin (0.04 μM), […]): 0.00; Difference [2, 6]: −0.06
10 | O=C1CCc2ccc(OCCCCN3CCN(c4cccc(Cl)c4Cl)CC3)cc2N1 [Aripiprazole] |  |  |  |  |  |  |  | −0.24 | Cholesterol-free media + simvastatin (0.04 μM) [1, 22]: 1.264; Complete Media ([1]; drug in complete media): 1.028; Difference [2, 23]: −0.16; Cholesterol-free [2, 24]: 0.9968; Complete [2, 25]: 0.833
11 | COc1cccc2c1cc([N+](=O)[O-])c1c(C(=O)O)cc3c(c12)OCO3 [Aristolochic acid A] |  |  |  |  |  |  |  |  | Cholesterol-free media + simvastatin (0.04 μM) [1, 16]: 0.923; Complete Media [1, 17]: 0.5762; Difference [1, 5]: −0.35; Difference [2, 6]: −0.56; Cholesterol-free [2, 26]: 1.282; Complete [2, 27]: 0.7241
12 | CC(C)(C)NCC(O)CSc1nc(-c2ccc(C(N)=O)s2)cs1 (centres unmarked) [Arotinolol] | 1.158 | 1.017 |  |  |  |  |  | −0.14 | Difference [2, 23]: −0.18; Cholesterol-free [2, 24]: 1.165; Complete [2, 25]: 0.9888
13 | CO[C@H]1O[C@@H]2O[C@@]3(C)CC[C@H]4[C@H](C)CC[C@@H]([C@H]1C)[C@@]24OO3 [Artemether] | 0.6524 | 0.841 | 1.059 | 0.7961 | 0.19 |  |  |  | Difference [2, 13]: −0.26
14 | C[C@@H]1CC[C@H]2[C@@H](C)C(=O)O[C@@H]3O[C@@]4(C)CC[C@@H]1[C@]32OO4 [Artemisinin] |  |  |  |  |  | 0.8489 | 0.7892 | −0.76 | Complete Media [1, 17]: 0.8603; Difference [2, 13]: −0.06
15 | CCO[C@H]1O[C@@H]2O[C@@]3(C)CC[C@H]4[C@H](C)CC[C@@H]([C@H]1C)[C@@]24OO3 [Artemotil] | 0.9606 | 0.8046 | 0.7572 | 0.5514 |  |  |  | −0.16 | Difference [2, 13]: −0.21
16 | CC(C)(N)CNC(=O)C[C@H]1CC[C@]2(CC1)OO[C@]1(O2)C2CC3CC(C2)CC1C3 [Arterolane] | 1.129 | 1.314 |  |  | 0.19 |  |  |  | Difference [2, 23]: −0.17; Cholesterol-free [2, 24]: 1.167; Complete [2, 25]: 0.9934
17 | C[C@H]1[C@H](OC(=O)CCC(=O)O)O[C@@H]2O[C@@]3(C)CC[C@H]4[C@H](C)CC[C@@H]1[C@@]24OO3 [Artesunate] | 1.06 | 0.9407 | 0.9732 | 0.63 |  |  |  | −0.12 | Difference [2, 11]: −0.34
18 | CCCNC(C)C(=O)Nc1c(C)csc1C(=O)OC (centres unmarked) [Articaine (hydrochloride)] | 0.9336 | 0.8247 |  |  |  | 1.045 | 1.285 | −0.11 | Difference [2, 19]: 0.24
19 | CN1CC2c3ccccc3Oc3ccc(Cl)cc3C2C1 (centres unmarked) [Asenapine (hydrochloride)] |  |  |  |  | 0.06 | 1.288 | 1.388 |  | Cholesterol-free media + simvastatin (0.04 μM) [1, 20]: 1.244; Complete Media [1, 21]: 1.302; Difference [2, 19]: 0.10
20 | CN1CC2c3ccccc3Oc3ccc(Cl)cc3C2C1 (centres unmarked) [Asenapine] |  |  | 1.636 | 1.303 |  |  |  | −0.22 | Cholesterol-free media + simvastatin (0.04 μM) [1, 22]: 0.918; Complete Media ([1]; drug in complete media): 0.7002; Difference [2, 11]: −0.33
21 | COC(=O)[C@H](Cc1ccccc1)NC(=O)[C@@H](N)CC(=O)O [Aspartame] (HELM PEPTIDE1{D.F.[CO[*:1]]}$$$$V2.0) |  |  |  |  |  | 1.044 | 0.9887 | −0.17 | Cholesterol-free media + simvastatin (0.04 μM) [1, 22]: 1.165; Complete Media ([1]; drug in complete media): 0.9998; Difference [2, 13]: −0.06
22 | CC(=O)Oc1ccccc1C(=O)O [Aspirin] |  |  | 1.474 | 1.02 |  |  |  | −0.21 | Cholesterol-free media + simvastatin (0.04 μM) [1, 22]: 1.19; Complete Media ([1]; drug in complete media): 0.9812; Difference [2, 11]: −0.45
23 | C=C[C@@H]1C[C@]1(NC(=O)[C@@H]1C[C@@H](Oc2ncc(OC)c3ccc(Cl)cc23)CN1C(=O)[C@@H](NC(=O)OC(C)(C)C)C(C)(C)C)C(=O)NS(=O)(=O)C1CC1 [Asunaprevir] |  |  |  |  |  |  |  |  | Cholesterol-free media + simvastatin (0.04 μM) [1, 8]: 1.005; Complete Media [1, 9]: 0.9979; Difference [1, 10]: −0.01; Difference [2, 23]: −0.09; Cholesterol-free [2, 24]: 1.081; Complete [2, 25]: 0.9902
24 | CC(C)NCC(O)COc1ccc(CC(N)=O)cc1 (centres unmarked) [Atenolol] |  |  | 1.429 |  | 0.06 |  |  |  | Cholesterol-free media + simvastatin (0.04 μM) [1, 20]: 0.9412; Complete Media [1, 21]: 1.006; Difference [2, 13]: −0.26
25 | CNCC[C@@H](Oc1ccccc1C)c1ccccc1 [Atomoxetine (hydrochloride)] |  |  |  |  | 0.03 |  |  |  | Cholesterol-free media + simvastatin (0.04 μM) [1, 20]: 1.776; Complete Media [1, 21]: 1.803; Difference ([2]; Complete minus Cholesterol-free, greater than 0 enhanced anti-cancer activity, about 0 neutral, below 0 antagonists): −0.68; Cholesterol-free [2, 26]: 1.663; Complete [2, 27]: 0.988
26 | CC(C)c1c(C(=O)Nc2ccccc2)c(-c2ccccc2)c(-c2ccc(F)cc2)n1CC[C@@H](O)C[C@@H](O)CC(=O)O [Atorvastatin (hemicalcium salt)] | 0.4555 | 0.7295 | 0.7947 | 0.5817 | 0.27 |  |  |  | Difference [2, 13]: −0.21
27 | O=C1C(O)=C([C@H]2CC[C@H](c3ccc(Cl)cc3)CC2)C(=O)c2ccccc21 [Atovaquone] | 1.327 | 1.493 |  |  | 0.17 | 0.9543 | 1.102 |  | Difference [2, 19]: 0.15
28 | CCCCN(CCCC)C(=O)CN1C[C@H](c2ccc3c(c2)OCO3)[C@@H](C(=O)O)[C@@H]1c1ccc(OC)cc1 [Atrasentan (hydrochloride)] |  |  |  |  |  |  |  | −0.24 | Cholesterol-free media + simvastatin (0.04 μM) [1, 22]: 1.092; Complete Media ([1]; drug in complete media): 0.8532; Difference [2, 23]: −0.17; Cholesterol-free [2, 24]: 1.198; Complete [2, 25]: 1.025
